# Results reported in patent EP0093484A2, “Antibacterial monic acid derivatives” (BEECHAM GROUP PLC, priority 1982, dated 1983).
# Read-outs that look alike come from different tables or passages of the source.
# Legend:
# M. gallisepticum S6 = experiment: Anti-mycoplasmal activity, MIC in Friis broth agarose; type: cell-based; details: Friis broth solidified with 0.9% agarose, 6 days incubation at 37°C
# [1] = test system: Corynebacterium pyogenes CY1; experiment: Veterinary bacteria, MIC by two fold serial dilution in agar
# Procedure: (§1) The activity of the compounds of the Examples against various organisms important in veterinary infections was determined using two fold serial dilutions in Diagnostic Sensitivity Test Agar inoculated with 10^4 organisms.
# Staph. aureus Oxford [2] = experiment: Human bacteria, MIC by serial dilution in nutrient agar; type: cell-based; details: Staph. aureus Oxford (human panel), nutrient agar with 5% chocolated horse blood, 18 hours at 37°C
# M. hyorhinis ATCC 25021 = experiment: Anti-mycoplasmal activity, MIC in Friis broth agarose; type: cell-based; details: Friis broth solidified with 0.9% agarose, 6 days incubation at 37°C
# S. typhimurium S18 = experiment: Veterinary bacteria, MIC by two fold serial dilution in agar
# Procedure: as §1
# Strep. faecalis I = experiment: Human bacteria, MIC by serial dilution in nutrient agar; type: cell-based; details: nutrient agar with 5% chocolated horse blood, 18 hours at 37°C
# E. coli NCTC 10418 [3] = experiment: as above; type: cell-based; details: E. coli NCTC 10418 (human panel), nutrient agar with 5% chocolated horse blood, 18 hours at 37°C
# [4] = test system: M. suipneumoniae NCTC 10110; experiment: Anti-mycoplasmal activity, MIC in Friis broth agarose; type: cell-based; details: Friis broth solidified with 0.9% agarose, 6 days incubation at 37°C
# Strep. uberis SPU1 = experiment: Veterinary bacteria, MIC by two fold serial dilution in agar
# Procedure: as §1
# M. suipneumoniae TAM 6N = experiment: Anti-mycoplasmal activity, MIC in Friis broth agarose; type: cell-based; details: Friis broth solidified with 0.9% agarose, 6 days incubation at 37°C
# [5] = test system: Neisseria catarrhalis 1502; experiment: Human bacteria, MIC by serial dilution in nutrient agar; type: cell-based; details: nutrient agar with 5% chocolated horse blood, 18 hours at 37°C
# [6] = test system: Haemophilus influenzae Wy21; experiment: as above; type: cell-based; details: nutrient agar with 5% chocolated horse blood, 18 hours at 37°C
# [7] = test system: Erysipelothrix rhusiopathiae NCTC 8163; experiment: Veterinary bacteria, MIC by two fold serial dilution in agar
# Procedure: as §1
# [8] = test system: M. suipneumoniae ATCC 25095; experiment: Anti-mycoplasmal activity, MIC in Friis broth agarose; type: cell-based; details: Friis broth solidified with 0.9% agarose, 6 days incubation at 37°C
# M. dispar NCTC 10125 = experiment: as above; type: cell-based; details: Friis broth solidified with 0.9% agarose, 6 days incubation at 37°C
# M. suipneumoniae HK(2) = experiment: as above; type: cell-based; details: Friis broth solidified with 0.9% agarose, 6 days incubation at 37°C
# [9] = test system: Strep. suis (group D) SPS11; experiment: Veterinary bacteria, MIC by two fold serial dilution in agar
# Procedure: as §1
# M. suipneumoniae MS16 = experiment: Anti-mycoplasmal activity, MIC in Friis broth agarose; type: cell-based; details: Friis broth solidified with 0.9% agarose, 6 days incubation at 37°C
# [10] = test system: Staph. aureus 152 (pen. sens.); experiment: Veterinary bacteria, MIC by two fold serial dilution in agar
# Procedure: as §1
# Strep. dysgalactiae SPD1 = experiment: as above
# Procedure: as §1
# E. coli NCTC 10418 [11] = experiment: as above
# Procedure: as §1
# Bacillus subtilis 6633 = experiment: Human bacteria, MIC by serial dilution in nutrient agar; type: cell-based; details: nutrient agar with 5% chocolated horse blood, 18 hours at 37°C
# Staph. aureus Oxford [12] = experiment: Veterinary bacteria, MIC by two fold serial dilution in agar
# Procedure: as §1
# [13] = test system: Pasteurella multocida 1633; experiment: Human bacteria, MIC by serial dilution in nutrient agar; type: cell-based; details: nutrient agar with 5% chocolated horse blood, 18 hours at 37°C
# M. suipneumoniae JF 435 = experiment: Anti-mycoplasmal activity, MIC in Friis broth agarose; type: cell-based; details: Friis broth solidified with 0.9% agarose, 6 days incubation at 37°C
# E. coli ESS = experiment: Human bacteria, MIC by serial dilution in nutrient agar; type: cell-based; details: nutrient agar with 5% chocolated horse blood, 18 hours at 37°C
# Strep. pneumoniae CN33 = experiment: as above; type: cell-based; details: nutrient agar with 5% chocolated horse blood, 18 hours at 37°C
# Staph. aureus Russell = experiment: as above; type: cell-based; details: nutrient agar with 5% chocolated horse blood, 18 hours at 37°C
# [14] = test system: Corynebacterium xerosis 9755; experiment: as above; type: cell-based; details: nutrient agar with 5% chocolated horse blood, 18 hours at 37°C
# [15] = test system: Staph. aureus B4 (pen. resistant); experiment: Veterinary bacteria, MIC by two fold serial dilution in agar
# Procedure: as §1
# Bord. bronchiseptica B08 = experiment: as above
# Procedure: as §1
# E. coli E1 = experiment: as above
# Procedure: as §1
# Ps. aeruginosa 10662 = experiment: Human bacteria, MIC by serial dilution in nutrient agar; type: cell-based; details: nutrient agar with 5% chocolated horse blood, 18 hours at 37°C
# Past. haemolytica PA5 = experiment: Veterinary bacteria, MIC by two fold serial dilution in agar
# Procedure: as §1
# K. aerogenes A = experiment: Human bacteria, MIC by serial dilution in nutrient agar; type: cell-based; details: nutrient agar with 5% chocolated horse blood, 18 hours at 37°C
# M. suipneumoniae Str. 11 = experiment: Anti-mycoplasmal activity, MIC in Friis broth agarose; type: cell-based; details: Friis broth solidified with 0.9% agarose, 6 days incubation at 37°C
# Strep. spp. 64/848-C = experiment: Human bacteria, MIC by serial dilution in nutrient agar; type: cell-based; details: nutrient agar with 5% chocolated horse blood, 18 hours at 37°C
# [16] = test system: Haemophilus influenzae Q1; experiment: as above; type: cell-based; details: nutrient agar with 5% chocolated horse blood, 18 hours at 37°C, read-out: MIC
# Past. multocida PA2 = experiment: Veterinary bacteria, MIC by two fold serial dilution in agar; details: Pasteurella multocida, PA2, 18 h
# Procedure: as §1
# [17] = Staphylococcus aureus, read-out: MIC
# [18] = Mesomycoplasma hyopneumoniae, 144 h, read-out: MIC
molecule,measurement,setting,value
1-(p-Methylsulfinylphenyl)ethyl monate A [Example 8],MIC,M. gallisepticum S6,10 µg/mL
same,MIC,"[1]; Corynebacterium pyogenes CY1, Diagnostic Sensitivity Test Agar, 18 hours at 37°C",>80 µg/mL
same,MIC,Staph. aureus Oxford [2],16 µg/mL
same,MIC,M. hyorhinis ATCC 25021,1.0 µg/mL
same,MIC,"S. typhimurium S18; S. typhimurium S18, Diagnostic Sensitivity Test Agar, 18 hours at 37°C",>80 µg/mL
same,MIC,Strep. faecalis I,>128 µg/mL
same,MIC,E. coli NCTC 10418 [3],>128 µg/mL
same,MIC,[4],2.5 µg/mL
same,MIC,"Strep. uberis SPU1; Strep. uberis SPU1, Diagnostic Sensitivity Test Agar, 18 hours at 37°C",.625 µg/mL
same,MIC,M. suipneumoniae TAM 6N,2.5 µg/mL
same,MIC,[5],4.0 µg/mL
same,MIC,[6],1.0 µg/mL
same,MIC,"[7]; Erysipelothrix rhusiopathiae NCTC 8163, Diagnostic Sensitivity Test Agar, 18 hours at 37°C",>80 µg/mL
same,MIC,[8],2.5 µg/mL
same,MIC,M. dispar NCTC 10125,0.5 µg/mL
same,MIC,M. suipneumoniae HK(2),2.5 µg/mL
same,MIC,"[9]; Strep. suis (group D) SPS11, Diagnostic Sensitivity Test Agar, 18 hours at 37°C",80 µg/mL
same,MIC,M. suipneumoniae MS16,1.0 µg/mL
same,MIC,"[10]; Staph. aureus 152 (pen. sens.), Diagnostic Sensitivity Test Agar, 18 hours at 37°C",5.0 µg/mL
same,MIC,"Strep. dysgalactiae SPD1; Strep. dysgalactiae SPD1, Diagnostic Sensitivity Test Agar, 18 hours at 37°C",2.5 µg/mL
same,MIC,"E. coli NCTC 10418 [11]; E. coli NCTC 10418 (veterinary panel), Diagnostic Sensitivity Test Agar, 18 hours at 37°C",>80 µg/mL
same,MIC,Bacillus subtilis 6633,4.0 µg/mL
same,MIC,"Staph. aureus Oxford [12]; Staph. aureus Oxford (veterinary panel), Diagnostic Sensitivity Test Agar, 18 hours at 37°C",20 µg/mL
same,MIC,[13],8.0 µg/mL
same,MIC,M. suipneumoniae JF 435,2.5 µg/mL
same,MIC,E. coli ESS,4.0 µg/mL
same,MIC,Strep. pneumoniae CN33,8.0 µg/mL
same,MIC,Staph. aureus Russell,32 µg/mL
same,MIC,[14],>128 µg/mL
same,MIC,"[15]; Staph. aureus B4 (pen. resistant), Diagnostic Sensitivity Test Agar, 18 hours at 37°C",20 µg/mL
same,MIC,"Bord. bronchiseptica B08; Bord. bronchiseptica B08, Diagnostic Sensitivity Test Agar, 18 hours at 37°C",>80 µg/mL
same,MIC,"E. coli E1; E. coli E1, Diagnostic Sensitivity Test Agar, 18 hours at 37°C",>80 µg/mL
same,MIC,Ps. aeruginosa 10662,>128 µg/mL
same,MIC,"Past. haemolytica PA5; Past. haemolytica PA5, Diagnostic Sensitivity Test Agar, 18 hours at 37°C",80 µg/mL
same,MIC,K. aerogenes A,>128 µg/mL
same,MIC,M. suipneumoniae Str. 11,1.0 µg/mL
same,MIC,Strep. spp. 64/848-C,4.0 µg/mL
"CC(=CC(=O)OCc1cccc([S+](C)[O-])c1)CC1OCC(CC2OC2C(C)C(C)O)C(O)C1O (stereo not drawn) [Example 6, m-Methylsulfinylbenzyl monate A]",MIC,"M. gallisepticum S6; Mycoplasmoides gallisepticum, 144 h, read-out: MIC",> 10 µg/mL
same,MIC,"[1]; CY1, 18 h",> 80 µg/mL
same,MIC,Staph. aureus Oxford [2]; [17],2.5 µg/mL
same,MIC,"M. hyorhinis ATCC 25021; Mesomycoplasma hyorhinis, ATCC25021, 144 h, read-out: MIC",5 µg/mL
same,MIC,"S. typhimurium S18; Salmonella enterica, TYPHIMURIUM, 18 h",> 80 µg/mL
same,MIC,"Strep. faecalis I; Enterococcus faecalis, read-out: MIC",> 100 µg/mL
same,MIC,"E. coli NCTC 10418 [3]; Escherichia coli, NCTC10418, read-out: MIC",> 100 µg/mL
same,MIC,[16],2.5 µg/mL
same,MIC,"[4]; Mesomycoplasma hyopneumoniae, NCTC10110, 144 h, read-out: MIC",10 µg/mL
same,MIC,"Strep. uberis SPU1; Streptococcus uberis, SPU1, 18 h",5 µg/mL
same,MIC,"M. suipneumoniae TAM 6N; Mesomycoplasma hyopneumoniae, TAM6N, 144 h, read-out: MIC",10 µg/mL
same,MIC,[5]; read-out: MIC,12.5 µg/mL
same,MIC,[6]; read-out: MIC,2.5 µg/mL
same,MIC,"[7]; Erysipelothrix rhusiopathiae, NCTC8163, 18 h",> 80 µg/mL
same,MIC,"[8]; Mesomycoplasma hyopneumoniae, ATCC25095, 144 h, read-out: MIC",5 µg/mL
same,MIC,"M. dispar NCTC 10125; 144 h, read-out: MIC",2.5 µg/mL
same,MIC,M. suipneumoniae HK(2); [18],10 µg/mL
same,MIC,"[9]; Streptococcus suis, 18 h",> 80 µg/mL
same,MIC,M. suipneumoniae MS16; [18],5 µg/mL
same,MIC,"[10]; Staphylococcus aureus, 18 h",5 µg/mL
same,MIC,Past. multocida PA2,20 µg/mL
same,MIC,"Strep. dysgalactiae SPD1; Streptococcus dysgalactiae, SPD1, 18 h",20 µg/mL
same,MIC,"E. coli NCTC 10418 [11]; Escherichia coli, NCTC10418, 18 h",> 80 µg/mL
same,MIC,Bacillus subtilis 6633; read-out: MIC,12.5 µg/mL
same,MIC,"Staph. aureus Oxford [12]; Staphylococcus aureus, 18 h",5 µg/mL
same,MIC,[13]; read-out: MIC,25 µg/mL
same,MIC,"M. suipneumoniae JF 435; Mesomycoplasma hyopneumoniae, JF435, 144 h, read-out: MIC",10 µg/mL
same,MIC,"E. coli ESS; Escherichia coli, read-out: MIC",25 µg/mL
same,MIC,"Strep. pneumoniae CN33; Streptococcus pneumoniae, read-out: MIC",25 µg/mL
same,MIC,Staph. aureus Russell; [17],12.5 µg/mL
same,MIC,[14]; read-out: MIC,> 100 µg/mL
same,MIC,"[15]; Staphylococcus aureus, 18 h",5 µg/mL
same,MIC,"Bord. bronchiseptica B08; Bordetella bronchiseptica, B08, 18 h",> 80 µg/mL
same,MIC,"E. coli E1; Escherichia coli, E1, 18 h",> 80 µg/mL
same,MIC,"Ps. aeruginosa 10662; Pseudomonas aeruginosa, read-out: MIC",> 100 µg/mL
same,MIC,"Past. haemolytica PA5; Mannheimia haemolytica, PA5, 18 h",80 µg/mL
same,MIC,"K. aerogenes A; Klebsiella aerogenes, read-out: MIC",> 100 µg/mL
same,MIC,M. suipneumoniae Str. 11; [18],5 µg/mL
